Non-standard residues stand in square brackets, D forms with d. Residues, ends and D or L forms follow the SMILES beside them. *: point of attachment. Leu(ol) = CC(C)C[C@H](N)CO; dIva = CC[C@@](C)(N)C(=O)O; Valol = CC(C)[C@@H](CO)N*; Aib = CC(C)(N)C(=O)O
Tests used:
SK-OV-3 = experiment: Cytotoxicity against human SK-OV-3 cells assessed as reduction in cell viability after 24 hrs by MTT assay; format: functional, cell-based; conditions: SK-OV-3, 24 h
SK-HEP1 = experiment: Cytotoxicity against human SK-HEP1 cells assessed as reduction in cell viability after 24 hrs by MTT assay; format: functional, cell-based; conditions: SK-HEP1, 24 h
DU-145 = experiment: Cytotoxicity against human DU-145 cells assessed as reduction in cell viability after 24 hrs by MTT assay; format: functional, cell-based; conditions: DU-145, 24 h
MDA-MB-231 = experiment: Cytotoxicity against human MDA-MB-231 cells assessed as reduction in cell viability after 24 hrs by MTT assay; format: functional, cell-based; conditions: MDA-MB-231, 24 h
HCT-116 = experiment: Cytotoxicity against human HCT-116 cells assessed as reduction in cell viability after 24 hrs by MTT assay; format: functional, cell-based; conditions: HCT-116, 24 h
Plasmodium falciparum = experiment: Antimalarial activity against Plasmodium falciparum Dd2 assessed as reduction in parasite growth incubated for 72 hrs by SYBR Green I staining based assay; format: functional, organism-based; conditions: Dd2, 72 h
[1] = Cytotoxicity against human HepG2 cells assessed as reduction in cell viability after 48 hrs by MTS assay; format: toxicity, cell-based
[2] = Selectivity index, ratio of EC50 for cytotoxicity against human HepG2 cells to EC50 for antimalarial activity against Plasmodium falciparum Dd2; format: toxicity, cell-based; conditions: read-out: Ratio EC50

| Compound | IC50 (SK-OV-3) [µM] | IC50 (SK-HEP1) [µM] | IC50 (DU-145) [µM] | IC50 (MDA-MB-231) [µM] | IC50 (HCT-116) [µM] | EC50 (Plasmodium falciparum) [µM] | EC50 at 48 h [1] [µM] | selectivity ratio [2] |
| --- | --- | --- | --- | --- | --- | --- | --- | --- |
| CC[C@H](C)[C@H](NC(=O)C(C)(C)NC(=O)[C@@H]1CCCN1C(=O)C(C)(C)NC(=O)[C@@H](NC(=O)[C@H](C)NC(=O)[C@@H]1CCCN1C(=O)C(C)(C)NC(=O)[C@H](CC(C)C)NC(=O)[C@H](CCC(N)=O)NC(=O)C(C)(C)NC(C)=O)C(C)C)C(=O)NC(C)(C)C(=O)N1CCC[C@H]1C(=O)N[C@H](CO)CC(C)C (Ac-[Aib]QL[Aib]PAV[Aib]P[Aib]I[Aib]P[Leu(ol)]) | 24 | 31 | 36 | 37 | 16 |  |  |  |
| CC(=O)NC(C)(C)C(=O)N[C@@H](CCC(N)=O)C(=O)N[C@@H](CC(C)C)C(=O)NC(C)(C)C(=O)N1CCC[C@H]1C(=O)N[C@@H](C)C(=O)N[C@H](C(=O)NC(C)(C)C(=O)N1CCC[C@H]1C(=O)NC(C)(C)C(=O)N[C@H](C(=O)NC(C)(C)C(=O)N1CCC[C@H]1C(=O)N[C@H](CO)CC(C)C)C(C)C)C(C)C (Ac-[Aib]QL[Aib]PAV[Aib]P[Aib]V[Aib]P[Leu(ol)]) | 5.3 | 8.9 | 11 | 6.4 | 7.1 |  |  |  |
| CC[C@@](C)(NC(=O)[C@H](C)NC(=O)[C@H](C)NC(=O)C(C)(C)NC(C)=O)C(=O)N[C@](C)(CC)C(=O)N[C@@H](CCC(N)=O)C(=O)N[C@](C)(CC)C(=O)N[C@@H](CC(C)C)C(=O)NC(C)(C)C(=O)N[C@@H](C)C(=O)NC(C)(C)C(=O)NC(C)(C)C(=O)N1CCC[C@H]1C(=O)N[C@@H](CC(C)C)C(=O)NC(C)(C)C(=O)NC(C)(C)C(=O)N[C@@H](CCC(N)=O)C(=O)N[C@H](CO)C(C)C | 2.9 | 0.97 | 4.5 | 0.85 | 0.83 |  |  |  |
| CC[C@@](C)(NC(C)=O)C(=O)N[C@@H](CCC(N)=O)C(=O)N[C@@H](CC(C)C)C(=O)NC(C)(C)C(=O)N1CCC[C@H]1C(=O)N[C@@H](C)C(=O)N[C@H](C(=O)NC(C)(C)C(=O)N1CCC[C@H]1C(=O)N[C@@H](CC(C)C)C(=O)N[C@@H](CC(C)C)C(=O)NC(C)(C)C(=O)N1CCC[C@H]1C(=O)N[C@H](CO)CC(C)C)C(C)C | 15 | 19 | 25 | 14 | 14 |  |  |  |
| CC[C@@](C)(NC(=O)[C@H](C)NC(=O)[C@H](CO)NC(=O)C(C)(C)NC(C)=O)C(=O)N[C@](C)(CC)C(=O)N[C@@H](CCC(N)=O)C(=O)N[C@](C)(CC)C(=O)N[C@@H](CC(C)C)C(=O)NC(C)(C)C(=O)N[C@@H](C)C(=O)NC(C)(C)C(=O)NC(C)(C)C(=O)N1CCC[C@H]1C(=O)N[C@@H](CC(C)C)C(=O)NC(C)(C)C(=O)NC(C)(C)C(=O)N[C@@H](CCC(N)=O)C(=O)N[C@H](COC(C)=O)C(C)C | 2.9 | 2.1 | 1.5 | 0.84 | 0.88 |  |  |  |
| CC[C@H](C)[C@H](NC(=O)C(C)(C)NC(=O)[C@@H]1CCCN1C(=O)C(C)(C)NC(=O)[C@@H](NC(=O)[C@H](C)NC(=O)[C@@H]1CCCN1C(=O)C(C)(C)NC(=O)[C@H](CC(C)C)NC(=O)[C@H](CCC(N)=O)NC(=O)C(C)(C)NC(C)=O)C(C)C)C(=O)NC(C)(C)C(=O)N1CCC[C@H]1C(=O)N[C@H](CO)C(C)C (Ac-[Aib]QL[Aib]PAV[Aib]P[Aib]I[Aib]P-Valol) | 7.8 | 11 | 16 | 4.6 | 9.5 |  |  |  |
| CC[C@H](C)[C@H](NC(=O)C(C)(C)NC(=O)[C@@H]1CCCN1C(=O)C(C)(C)NC(=O)[C@@H](NC(=O)[C@H](C)NC(=O)[C@@H]1CCCN1C(=O)C(C)(C)NC(=O)[C@H](CC(C)C)NC(=O)[C@H](CCC(N)=O)NC(=O)[C@@](C)(CC)NC(C)=O)C(C)C)C(=O)NC(C)(C)C(=O)N1CCC[C@H]1C(=O)N[C@H](CO)CC(C)C | > 50 | 4.8 | > 50 | 20 | 16 |  |  |  |
| CC(=O)O[C@@]12CO[C@@H]1C[C@H](O)[C@@]1(C)C(=O)[C@H](O)C3=C(C)[C@@H](OC(=O)[C@H](O)[C@@H](NC(=O)OC(C)(C)C)c4ccccc4)C[C@@](O)([C@@H](OC(=O)c4ccccc4)[C@H]21)C3(C)C [DOCETAXEL ANHYDROUS] | 0.05 | 0.03 | 0.04 | 0.17 |  |  |  |  |
| CC[C@H](C)[C@H](NC(=O)[C@@](C)(CC)NC(=O)[C@@H]1CCCN1C(=O)C(C)(C)NC(=O)[C@@H](NC(=O)[C@H](C)NC(=O)[C@@H]1CCCN1C(=O)C(C)(C)NC(=O)[C@H](CC(C)C)NC(=O)[C@H](CCC(N)=O)NC(=O)C(C)(C)NC(C)=O)C(C)C)C(=O)NC(C)(C)C(=O)N1CCC[C@H]1C(=O)N[C@H](CO)C(C)C | 3.8 | 4.6 | 9.3 | 3.9 | 3.5 |  |  |  |
| CC[C@@](C)(NC(C)=O)C(=O)N[C@@H](CCC(N)=O)C(=O)N[C@@H](CC(C)C)C(=O)NC(C)(C)C(=O)N1CCC[C@H]1C(=O)N[C@@H](C)C(=O)N[C@H](C(=O)NC(C)(C)C(=O)N1CCC[C@H]1C(=O)N[C@](C)(CC)C(=O)N[C@@H](CC(C)C)C(=O)NC(C)(C)C(=O)N1CCC[C@H]1C(=O)N[C@H](CO)CC(C)C)C(C)C | 4.3 | 4.3 | 9.2 | 5.9 | 2.7 |  |  |  |
| CC[C@H](C)[C@H](NC(=O)[C@@](C)(CC)NC(=O)[C@@H]1CCCN1C(=O)C(C)(C)NC(=O)[C@@H](NC(=O)[C@H](C)NC(=O)[C@@H]1CCCN1C(=O)C(C)(C)NC(=O)[C@H](CC(C)C)NC(=O)[C@H](CCC(N)=O)NC(=O)C(C)(C)NC(C)=O)C(C)C)C(=O)NC(C)(C)C(=O)N1CCC[C@H]1C(=O)N[C@H](CO)CC(C)C | 3.8 | 3.8 | 10 | 4.3 | 3 |  |  |  |
| CC[C@@](C)(NC(=O)[C@H](C)NC(=O)[C@H](CO)NC(=O)C(C)(C)NC(C)=O)C(=O)N[C@](C)(CC)C(=O)N[C@@H](CCC(N)=O)C(=O)N[C@](C)(CC)C(=O)N[C@@H](CC(C)C)C(=O)NC(C)(C)C(=O)N[C@@H](C)C(=O)NC(C)(C)C(=O)NC(C)(C)C(=O)N1CCC[C@H]1C(=O)N[C@@H](CC(C)C)C(=O)NC(C)(C)C(=O)NC(C)(C)C(=O)N[C@@H](CCC(N)=O)C(=O)N[C@H](CO)C(C)C | 0.91 | 0.91 | 1.4 | 0.68 | 0.71 |  |  |  |
| CC[C@H](C)[C@H](NC(=O)[C@H](CC(C)C)NC(=O)[C@H](CCC(N)=O)NC(=O)[C@@](C)(CC)NC(C)=O)C(=O)NC(C)(C)C(=O)N1CCC[C@H]1C(=O)N[C@](C)(CC)C(=O)N[C@@H](CC(C)C)C(=O)NC(C)(C)C(=O)N1CCC[C@H]1C(=O)N[C@H](CO)CC(C)C (Ac-[dIva]QLI[Aib]P[dIva]L[Aib]P[Leu(ol)]) |  |  |  |  |  | 0.1 | > 25 | > 250 |
| CC[C@H](C)[C@H](NC(=O)[C@@](C)(CC)NC(=O)[C@@H]1CCCN1C(=O)C(C)(C)NC(=O)[C@@H](NC(=O)[C@H](C)NC(=O)[C@@H]1CCCN1C(=O)C(C)(C)NC(=O)[C@H](CC(C)C)NC(=O)[C@H](CCC(N)=O)NC(=O)[C@@](C)(CC)NC(C)=O)C(C)C)C(=O)NC(C)(C)C(=O)N1CCC[C@H]1C(=O)N[C@H](CO)CC(C)C | 9.2 | 8 | 20 | 5.5 | 4.8 |  |  |  |
